Results from patent US10501453B2, “Benzothiazole or benzoxazole compounds as SUMO activators” (Icahn School of Medicine at Mount Sinai, priority 2012, dated 2019).

Legend:
[1] = test system: TAC mice; test: Hemodynamics in mouse model of heart failure (TAC); assay type: in vivo; conditions: for ESPVR slope: baseline 3.1; for Tau(1/2): baseline 7.7; for Pmax: baseline 111.1; for HR: baseline 422.1; for +dP/dt Max: baseline 4738.7; for index of contractility ESPVR, dose dependence: infusion of increasing doses
Method: Hemodynamics were measured to evaluate the acute effect of Example 1 infusion on the cardiac function of the mouse model of HF. In the first set of experiments, mice were exposed to pressure overload by thoracic aortic constriction (TAC) or sham operation and received either EXAMPLE 1 or vehicle. At two months post-TAC animals developed HF. […] In addition, the positive chronotropic effect of dobutamine was no longer observed in TAC mice (FIG. 9). Following cannulation of the carotid artery and external jugular vein, infusion of EXAMPLE 1 or vehicle was performed as described in Method section. Pressure and conductance catheters were introduced in the LV through the carotid artery. Pressure and volume measurements were made simultaneously and pressure volume curves were constructed as the vehicle or EXAMPLE 1 were infused.
Hemodynamic data were obtained in 1 mg of EXAMPLE 1-treated failing hearts at 30 min and 60 min after compound treatment. […] The improvement occurred within 30 minutes after treatment and maintained for 60 minutes after treatment. […] The effects of EXAMPLE 1 on various hemodynamic parameters are shown in FIG. 9b and Table S1. dP/dt max increased with increasing concentration of EXAMPLE 1 while Tau a parameter of relaxation decreased an indication of enhanced relaxation.
A model of heart failure was created by transaortic constriction in the mouse for 6-8 weeks. Following cannulation of the carotid artery and external jugular vein, infusion of Example 1 or vehicle was performed as shown in the protocol in FIG. 16. Pressure and conductance catheters were introduced in the left ventricle through the carotid artery. Pressure and volume measurements were made simultaneously and pressure volume curves were constructed as the vehicle or Example 1 was infused.

[2] = test system: Yorkshire pigs with severe heart failure; test: Contractility in Yorkshire pigs with severe heart failure secondary to myocardial infarction; assay type: in vivo, pig; conditions: 5 mg/kg, intracoronary
Method: Example 1 was dosed in Yorkshire pigs at 5 mg/kg with severe heart failure secondary to myocardial infarction.
The experimental protocols complied with the National Institutes of Health Guide for the Care and Use of Laboratory Animals and standards of United States regulatory agencies. They were approved by the Institutional Animal Care and Use Committee of the Mount Sinai School of Medicine. Yorkshire pigs were pre-medicated using intramuscular Telazol™ (8.0 mg/kg; tiletamine hydrochloride and zolazepam hydrochloride; Fort Dodge Animal Health, Fort Dodge, Iowa). After the placement of an intravenous line, animals were intubated and ventilated with 100% oxygen. General anesthesia was maintained with intravenous propofol (8-10 mg/kg/hr) throughout the procedure.
The animals underwent a 2-hour balloon occlusion of the proximal LAD (left anterior descending coronary artery) followed by reperfusion. Ten minutes before MI creation a continuous infusion of 20 mEq potassium acetate, 75 mg amiodarone, and 2 mg atropine was initiated to reduce ischemia related arrhythmia. […] Arterial pressure, blood oxygen saturation (SpO2), and electrocardiogram were monitored closely throughout the procedure. […]
Cardiac performance was evaluated at one month after MI. […] Cardiac function was monitored and recorded for 3 hours after injection.

[3] = test system: Serca2 KO mice; test: Hemodynamics in Serca2 knockout mice; assay type: in vivo, mouse; conditions: before vs after infusion
Description: Adult mice with an inducible cardiomyocyte-specific excision of the Atp2a2 (Serca2) gene (Serca2 KO) were used. Four weeks after induction of Serca2 gene excision, the mice display a substantial reduction in systolic and diastolic function (FIG. 11a). […] The decay constant, tau value was nearly 1.3-fold (Serca2 KO, […]; WT, […], p<0.001) larger in Serca2 KO mice compared with WT control (FIG. 11b). The expression of SERCA2a was completely lacking in Serca2 KO mice (FIG. 11c).
Hemodynamic parameters obtained before and after infusion of Example 1 were compared. […] The dose-dependent enhancement of cardiac contractility disappeared in Serca2 KO mice (FIG. 6b).

[4] = test system: adult rat ventricular myocytes (ARVMs); test: Cell shortening/re-lengthening and calcium transient of ARVMs (IonOptix); assay type: cell-based
[5] = failing hearts, 1 mg, 30 min and 60 min after treatment

## COc1ccc(-c2nnc(Nc3nc4c(OC)cccc4s3)o2)cc1 [Example 1, N-(4-methoxybenzo[d]thiazol-2-yl)-5-(4-methoxyphenyl)-1,3,4-oxadiazol-2-amine]
[1]; TAC mice
  Tau (parameter of relaxation) with increasing concentration: decreased
  dP/dt max with increasing concentration: increased
  index of contractility ESPVR, dose dependence: increase in the index of contractility ESPVR in a dose dependent fashion
[1]; TAC mice, 0.1 mg/kg
  ESPVR slope: 9.0 mmHg/A
  Tau(1/2): 7.5 ms
  Pmax: 115.1 mmHg
  HR: 417.1 bpm
  +dP/dt Max: 4803.3 mmHg/sec
[1]; TAC mice, 1.0 mg/kg
  ESPVR slope: 11.2 mmHg/A
  Tau(1/2): 6.4 ms
  Pmax: 123.6 mmHg
  HR: 422.3 bpm
  +dP/dt Max: 5448.8 mmHg/sec
[1]; TAC mice, 10 mg/kg
  ESPVR slope: 20.3 mmHg/A
  Tau(1/2): 6.2 ± 0.4 ms
  Pmax: 124.5 mmHg
  HR: 455.1 bpm
  +dP/dt Max: 6229.4 mmHg/sec
[1]; TAC mice, listed as EXAMPLE 1
  index of contractility ESPVR, dose dependence: increase in the index of contractility, ESPVR in a dose dependent manner
[1]; failing hearts, 1 mg
  time the improvement was maintained after treatment: 60 min
  time to improvement after treatment: ≤ 30 min
[1]; [5]
  end systolic pressure-volume relationship (ESPVR) in the LV versus baseline: significantly steeper
  rate of LV pressure rise (dP/dt max) versus baseline: increased cardiac contractility
[2]
  increase in contractility (as measured by dP/dt): 25-30%
[3]
  hemodynamic parameters in Serca2 KO mice: did not induce any improvements
[4]; 0.1 μM
  Tau value (dose response): 1.3 ± 0.0 ms
[4]; 1 μM
  Tau value (dose response): 1300 ± 100 ms
[4]; concentration dependent manner, versus DMSO
  cell contractility (peak shortening), dose response: significantly increased cell contractility
